Results reported in the supplement of paper PMC4862054.

Tests used:
Assay in all cases: normalised viability (% of control), CellTiter-Blue; higher = more viable cells (about 100 = DMSO control)
Conditions in all cases: incubation time: 72 h
CAL-148 [1] = tested on: CAL-148
Procedure: (§1)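 DSRT, CellTiter-Blue viability, 72 h incubation. Signal is normalised to DMSO and benzethonium chloride controls. Value is the normalised response at dose 7.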

CAL-51 [2] = tested on: CAL-51
Procedure: as §1

CAL-85-1 [3] = tested on: CAL-85-1
Procedure: as §1

HDQ-P1 [4] = tested on: HDQ-P1
Procedure: as §1

MDA-MB-453 [5] = tested on: MDA-MB-453
Procedure: as §1

BT-474 = tested on: BT-474
How it was run: (§2)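 The reported figure is normalised viability at a single listed concentration of the series. Breast cancer cell lines (20 µl suspension) went onto 384-well plates holding compound in 5 µl medium for 72 h. CellTiter-Blue (2.5 µl, 2 h, 37 °C) was read by fluorescence at 560/590 nm, and each plate was scaled to vehicle at 100 and a positive kill control at 0.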

BT-549 = tested on: BT-549
How it was run: as §2

CAL-120 = tested on: CAL-120
How it was run: as §2

CAL-148 [6] = tested on: CAL-148; remark: listed apart in the source
How it was run: as §2

CAL-51 [7] = tested on: CAL-51; remark: listed apart in the source
How it was run: as §2

CAL-85-1 [8] = tested on: CAL-85-1; remark: listed apart in the source
How it was run: as §2

DU-4475 = tested on: DU-4475
How it was run: as §2

HCC1143 = tested on: HCC1143
How it was run: as §2

HCC1599 = tested on: HCC1599
How it was run: as §2

HCC1937 = tested on: HCC1937
How it was run: as §2

HDQ-P1 [9] = tested on: HDQ-P1; remark: listed apart in the source
How it was run: as §2

Hs578T = tested on: Hs578T
How it was run: as §2

MDA-MB-231 = tested on: MDA-MB-231
How it was run: as §2

MDA-MB-436 = tested on: MDA-MB-436
How it was run: as §2

MDA-MB-453 [10] = tested on: MDA-MB-453; remark: listed apart in the source
How it was run: as §2

MDA-MB-468 = tested on: MDA-MB-468
How it was run: as §2

MFM-223 = tested on: MFM-223
How it was run: as §2

SK-BR-3 = tested on: SK-BR-3
How it was run: as §2

`COc1ccc(-c2cc3c(C)nc(N)nc3n([C@H]3CC[C@H](OCCO)CC3)c2=O)cn1` (1000 nM) was tested, and the normalised viability (CAL-148 [1]) was 18.1%, the normalised viability (CAL-51 [2]) was 12.9% and the normalised viability (CAL-85-1 [3]) was 23.1%. It also gave a normalised viability (HDQ-P1 [4]) of 12.2% and a normalised viability (MDA-MB-453 [5]) of 7.65%.

Work on `Nc1nc(=O)c2c([nH]1)NCC(CNc1ccc(C(=O)N[C@@H](CCC(=O)O)C(=O)O)cc1)N2C=O` (mixture of isomers) [Folinic acid] yielded a normalised viability (BT-474; 0.99 nM) of 106%, a normalised viability (BT-474; 99 nM) of 99.6% and a normalised viability (BT-474; 990 nM) of 116%. The normalised viability (BT-549; 0.99 nM) was 100%, the normalised viability (BT-549; 99 nM) was 105% and the normalised viability (BT-549; 990 nM) was 102%. It also gave a normalised viability (CAL-120; 0.99 nM) of 105%, a normalised viability (CAL-120; 99 nM) of 110% and a normalised viability (CAL-120; 990 nM) of 108%. It also gave a normalised viability (CAL-148 [6]; 0.297 nM) of 92.2%, a normalised viability (CAL-148 [6]; 2.97 nM) of 88.9% and a normalised viability (CAL-148 [6]; 9.9 nM) of 96.6%. It also gave a normalised viability (CAL-51 [7]; 0.297 nM) of 94%, a normalised viability (CAL-51 [7]; 2.97 nM) of 92% and a normalised viability (CAL-51 [7]; 9.9 nM) of 97.6%. For the same molecule, the normalised viability (CAL-85-1 [8]; 0.297 nM) was 96.2%, the normalised viability (CAL-85-1 [8]; 2.97 nM) was 93.9% and the normalised viability (CAL-85-1 [8]; 9.9 nM) was 99.8%. For the same molecule, the normalised viability (DU-4475; 0.297 nM) was 110%, the normalised viability (DU-4475; 2.97 nM) was 85% and the normalised viability (DU-4475; 9.9 nM) was 109%. For the same molecule, the normalised viability (HCC1143; 0.99 nM) was 92.7%, the normalised viability (HCC1143; 99 nM) was 95.8% and the normalised viability (HCC1143; 990 nM) was 92%. For the same molecule, the normalised viability (HCC1599; 0.99 nM) was 111%, the normalised viability (HCC1599; 99 nM) was 106% and the normalised viability (HCC1599; 990 nM) was 118%. It also gave a normalised viability (HCC1937; 0.99 nM) of 121%, a normalised viability (HCC1937; 99 nM) of 87.8% and a normalised viability (HCC1937; 990 nM) of 107%. The normalised viability (HDQ-P1 [9]; 0.297 nM) was 122%, the normalised viability (HDQ-P1 [9]; 2.97 nM) was 115% and the normalised viability (HDQ-P1 [9]; 9.9 nM) was 92.2%. For the same molecule, the normalised viability (Hs578T; 0.99 nM) was 92.2%, the normalised viability (Hs578T; 99 nM) was 102% and the normalised viability (Hs578T; 990 nM) was 96.3%. The normalised viability (MDA-MB-231; 0.99 nM) was 100%, the normalised viability (MDA-MB-231; 99 nM) was 123% and the normalised viability (MDA-MB-231; 990 nM) was 118%. The normalised viability (MDA-MB-436; 0.99 nM) was 123%, the normalised viability (MDA-MB-436; 99 nM) was 112% and the normalised viability (MDA-MB-436; 990 nM) was 123%. The normalised viability (MDA-MB-453 [10]; 0.297 nM) was 110%, the normalised viability (MDA-MB-453 [10]; 2.97 nM) was 109% and the normalised viability (MDA-MB-453 [10]; 9.9 nM) was 103%. For the same molecule, the normalised viability (MDA-MB-468; 0.99 nM) was 115%, the normalised viability (MDA-MB-468; 99 nM) was 107% and the normalised viability (MDA-MB-468; 990 nM) was 115%. The normalised viability (MFM-223; 0.99 nM) was 106%, the normalised viability (MFM-223; 99 nM) was 107% and the normalised viability (MFM-223; 990 nM) was 94.4%. The normalised viability (SK-BR-3; 0.99 nM) was 95.3%, the normalised viability (SK-BR-3; 99 nM) was 98.6% and the normalised viability (SK-BR-3; 990 nM) was 116%.
